Entries after “also recorded” stand apart in the source; their conditions may differ.
Tests used:
human TRPV1 = biological target: T1, human TRPV1 (Homo sapiens, UniProt Q8NER1); test: Ca2+ signal in N2a cells transfected with human TRPV1 (capsaicin stimulation); assay type: cell-based; settings: 5 μM capsaicin stimulation
T1 construct: expressed in transfected cells; host or cells: N2a cells
Method: (§1) Compounds were tested for their effect on TRPV1, TRPV2, and TRPV3. Methods were similar to those described in Example 15. Briefly, N2a cells were transfected with human TRPV1, TRPV2, or TRPV3. eGFP-transfection was used as control. For specific stimulation of TRPV1, 5 μM capsaicin was used. For stimulation of TRPV2, hypotonicity (260 mosmol/L) was used, based on previous reports of TRPV2 being osmotically responsive. N2a cells were not responsive to hypotonicity, and neither were control-transfected cells. For TRPV3-expressing cells, camphor (20% of a commercially available stock solution) was used. […] Stimulation and control protocols were applied as for TRPA1-expressing N2a cells as detailed above in Example 15.
(§2) For TRPV1, TRPV2, and TRPV3, Ca2+ transience was not affected by administration of 16-8 or 16-8/18hy.

human TRPV2 = biological target: T2, human TRPV2 (Homo sapiens, UniProt Q9Y5S1); test: Ca2+ signal in N2a cells transfected with human TRPV2 (hypotonicity stimulation); assay type: cell-based; settings: hypotonicity (260 mosmol/L) stimulation
T2 construct: expressed in transfected cells; host or cells: N2a cells
T2 sequence (Q9Y5S1 1-764): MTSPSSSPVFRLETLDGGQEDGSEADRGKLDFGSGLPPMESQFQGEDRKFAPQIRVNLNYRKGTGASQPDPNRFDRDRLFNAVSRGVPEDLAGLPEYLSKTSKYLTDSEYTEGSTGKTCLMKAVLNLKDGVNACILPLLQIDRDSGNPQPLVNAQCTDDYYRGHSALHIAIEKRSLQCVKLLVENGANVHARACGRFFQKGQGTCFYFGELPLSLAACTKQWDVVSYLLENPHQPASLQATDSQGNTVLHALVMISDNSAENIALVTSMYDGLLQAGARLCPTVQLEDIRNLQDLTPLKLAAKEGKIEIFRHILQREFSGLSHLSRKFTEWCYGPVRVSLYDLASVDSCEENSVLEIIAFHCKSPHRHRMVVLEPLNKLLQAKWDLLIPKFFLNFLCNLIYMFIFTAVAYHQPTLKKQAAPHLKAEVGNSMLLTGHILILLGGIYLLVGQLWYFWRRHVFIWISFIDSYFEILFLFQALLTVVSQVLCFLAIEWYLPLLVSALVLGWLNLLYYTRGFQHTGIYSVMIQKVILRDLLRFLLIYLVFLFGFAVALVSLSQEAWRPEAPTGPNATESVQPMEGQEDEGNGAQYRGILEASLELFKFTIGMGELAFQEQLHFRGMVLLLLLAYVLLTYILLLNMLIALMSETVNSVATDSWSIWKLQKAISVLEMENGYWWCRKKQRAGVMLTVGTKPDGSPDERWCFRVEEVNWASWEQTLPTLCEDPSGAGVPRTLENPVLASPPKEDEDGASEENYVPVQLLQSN
Method: as §1, §2

human TRPV3 = biological target: T3, human TRPV3 (Homo sapiens, UniProt Q8NET8); test: Ca2+ signal in N2a cells transfected with human TRPV3 (camphor stimulation); assay type: cell-based
T3 construct: expressed in transfected cells; host or cells: N2a cells
T3 sequence (Q8NET8 1-790): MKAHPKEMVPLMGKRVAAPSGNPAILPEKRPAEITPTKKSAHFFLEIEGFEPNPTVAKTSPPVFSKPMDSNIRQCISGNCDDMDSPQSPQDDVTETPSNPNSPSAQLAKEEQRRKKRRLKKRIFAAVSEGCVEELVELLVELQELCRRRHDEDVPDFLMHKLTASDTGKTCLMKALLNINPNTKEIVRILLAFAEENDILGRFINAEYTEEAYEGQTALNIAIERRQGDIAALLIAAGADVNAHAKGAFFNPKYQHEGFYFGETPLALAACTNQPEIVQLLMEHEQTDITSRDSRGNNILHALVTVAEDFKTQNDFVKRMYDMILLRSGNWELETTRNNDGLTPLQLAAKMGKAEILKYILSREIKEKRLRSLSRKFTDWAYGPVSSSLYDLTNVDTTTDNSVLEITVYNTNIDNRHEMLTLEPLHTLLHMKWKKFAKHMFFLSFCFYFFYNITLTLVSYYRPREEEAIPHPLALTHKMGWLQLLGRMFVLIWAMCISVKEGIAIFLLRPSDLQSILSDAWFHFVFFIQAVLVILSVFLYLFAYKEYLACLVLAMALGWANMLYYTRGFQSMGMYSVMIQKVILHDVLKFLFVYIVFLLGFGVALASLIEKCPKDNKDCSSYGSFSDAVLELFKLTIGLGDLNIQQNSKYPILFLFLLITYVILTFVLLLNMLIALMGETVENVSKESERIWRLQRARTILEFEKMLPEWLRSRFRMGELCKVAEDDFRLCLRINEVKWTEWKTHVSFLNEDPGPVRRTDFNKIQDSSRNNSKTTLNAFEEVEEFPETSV
Method: as §1, §2

[1] = UVB permeation of foot-pad skin (sunscreen test); parameters: species or system mouse; settings: topically applied; GSK205 5 mM
Method: The UV LED was powered with 20 mA of current, resulting in 500 μW of optical power in a circular focal spot 1.5 mm in diameter, with 70% of the total flux in a 0.5 mm beam radius. The UV optical power transmitted through the sample was detected by a Hamamatsu S127-66BR UV detector, and the output of the photodetector was measured using a Keithley 236 source measure unit. Next, the foot-pad epidermis of a mouse was measured for UV transmission by placing it on a quartz coverslip and exposure to the UV beam. The vehicle-control group was treated with the alcohol and glycerol solution only. Another control group consisted of a commercially-available SPF100 preparation sunscreen in form of a cream, which was applied similar to the vehicle-control. The data for the GSK205 and sunscreen was normalized to this control data.
To validate these finding, we tested UVB absorption in GSK205-treated paw-pad skin, and whether GSK205 thus functions as sunscreen.

TRPV4 = TRPV4 (Homo sapiens, UniProt Q9HBA0); test: UVB-evoked Ca++ transient in TRPV4-transfected HEK293T cells; assay type: cell-based; parameters: expressed in transfected cells; host or cells: HEK293T cells; settings: pre-exposure to 20 μM GSK205
Source text: (B) Focusing properties of the ball lens. […] (E) TRPV3 activation experiment. […] (F) TRPV4 selective activator GSK101-related findings.
To assess whether TRPV4 is sufficient for the UVB-evoked Ca++ influx, we introduced high levels of TRPV4 into HEK293 epithelial cells. TRPV4 expression endowed these cells with the ability to generate robust Ca++ signaling in response to UVB (FIG. 2G). Moreover, if they were pre-exposed to GSK205, the response was blocked. Thus, heterologous TRPV4 expression is sufficient for UVB radiation to cause a cellular Ca++ transient.

T1 sequence (Q8NER1 whole entry): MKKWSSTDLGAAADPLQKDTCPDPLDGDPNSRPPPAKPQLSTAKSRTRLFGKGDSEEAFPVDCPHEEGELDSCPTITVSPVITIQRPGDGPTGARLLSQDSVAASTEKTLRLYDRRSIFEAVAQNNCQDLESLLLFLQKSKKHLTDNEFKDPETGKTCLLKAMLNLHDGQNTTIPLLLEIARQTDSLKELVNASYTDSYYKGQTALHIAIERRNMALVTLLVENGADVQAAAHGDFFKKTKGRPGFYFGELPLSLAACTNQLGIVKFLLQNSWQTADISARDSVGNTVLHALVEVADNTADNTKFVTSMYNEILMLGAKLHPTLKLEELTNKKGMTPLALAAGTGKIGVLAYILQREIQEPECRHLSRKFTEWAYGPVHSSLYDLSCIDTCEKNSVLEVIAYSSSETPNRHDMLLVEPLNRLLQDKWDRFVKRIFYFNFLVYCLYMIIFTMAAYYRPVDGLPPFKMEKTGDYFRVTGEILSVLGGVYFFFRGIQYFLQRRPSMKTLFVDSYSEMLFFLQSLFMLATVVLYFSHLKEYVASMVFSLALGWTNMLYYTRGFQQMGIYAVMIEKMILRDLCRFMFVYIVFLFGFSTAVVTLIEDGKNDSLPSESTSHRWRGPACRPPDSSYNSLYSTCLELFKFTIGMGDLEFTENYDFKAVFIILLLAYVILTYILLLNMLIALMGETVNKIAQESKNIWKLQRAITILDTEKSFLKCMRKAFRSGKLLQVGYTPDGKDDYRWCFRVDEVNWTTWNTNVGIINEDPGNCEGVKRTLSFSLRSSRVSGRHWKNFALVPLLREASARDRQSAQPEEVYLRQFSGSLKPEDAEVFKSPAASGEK
Chain of TRPV4 (Q9HBA0 whole entry, species assumed): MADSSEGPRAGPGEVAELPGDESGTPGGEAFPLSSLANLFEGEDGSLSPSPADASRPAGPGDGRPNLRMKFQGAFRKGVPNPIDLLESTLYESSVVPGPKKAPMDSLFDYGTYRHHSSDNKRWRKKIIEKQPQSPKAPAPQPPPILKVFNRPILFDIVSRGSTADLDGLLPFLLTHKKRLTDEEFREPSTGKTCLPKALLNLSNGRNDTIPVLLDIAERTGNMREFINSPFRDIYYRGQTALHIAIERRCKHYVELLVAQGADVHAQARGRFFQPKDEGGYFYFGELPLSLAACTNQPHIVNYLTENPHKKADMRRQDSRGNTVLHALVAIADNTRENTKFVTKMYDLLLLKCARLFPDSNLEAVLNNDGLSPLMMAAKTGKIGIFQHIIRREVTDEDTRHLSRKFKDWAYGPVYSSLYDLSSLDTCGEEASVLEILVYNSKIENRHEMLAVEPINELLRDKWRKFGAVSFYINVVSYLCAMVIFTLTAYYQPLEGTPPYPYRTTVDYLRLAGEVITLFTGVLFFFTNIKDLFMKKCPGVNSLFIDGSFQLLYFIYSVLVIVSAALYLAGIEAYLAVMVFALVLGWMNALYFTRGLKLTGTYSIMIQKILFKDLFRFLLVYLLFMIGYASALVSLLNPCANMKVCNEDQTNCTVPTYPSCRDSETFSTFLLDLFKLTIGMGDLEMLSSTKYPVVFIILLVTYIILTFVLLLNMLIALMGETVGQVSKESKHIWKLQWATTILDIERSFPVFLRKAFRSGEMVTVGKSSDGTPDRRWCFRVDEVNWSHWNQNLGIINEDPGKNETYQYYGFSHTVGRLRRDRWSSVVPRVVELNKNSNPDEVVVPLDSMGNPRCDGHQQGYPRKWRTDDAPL

SMILES | Ca2+ transience, TRPV1 (human TRPV1) | Ca2+ transience, TRPV2 (human TRPV2) | Ca2+ transience, TRPV3 (human TRPV3) | UVB permeation of paw-pad skin [1] | UVB-evoked Ca++ signal in TRPV4-transfected HEK293T cells (TRPV4)
CCN(CCc1ccc(Nc2nc(-c3ccccc3)cs2)cc1)Cc1ccccc1 [16-8/18hy] | not affected | not affected | not affected | – | –
CN(CCc1ccc(Nc2nc(-c3ccccc3)cs2)cc1)Cc1ccccc1 [Compound 16-8] | not affected | not affected | not affected | – | –
CN(CCc1ccc(Nc2nc(-c3cccnc3)cs2)cc1)Cc1ccccc1 [GSK205] | – | – | – | equal UVB permeation; also recorded: absence of a change in UVB permeation | blocked; also recorded: virtually eliminates
